In ChEMBL document CHEMBL1201862, “PubChem BioAssay data set” (2004) one finds CC50, IC50 and EC50 data, which are given here for 14 compounds.

Molecules are shown by their SMILES. Calls of active or inactive are those of the source. Where a SMILES comes first, the peptide text is derived from it. The star is where a group is joined. Boc = CC(C)(C)OC(=O)*; Bn = c1ccc(C*)cc1; NHNH2 = NN*

Assay [1] is described as follows: viability loss in THP-1 monocytes – THP-1 cells, cytotoxicity control for Vif-APOBEC3G degradation inhibitor project, dose response (AID 1117359). Format: functional. The conditions noted are these: THP-1.
Assay [2] has as its target T1, Estrogen receptor (Homo sapiens, UniProt P03372).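 Note: potency for inhibiting coactivator peptide recruitment to the receptor.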
T1 sequence (P03372 whole entry): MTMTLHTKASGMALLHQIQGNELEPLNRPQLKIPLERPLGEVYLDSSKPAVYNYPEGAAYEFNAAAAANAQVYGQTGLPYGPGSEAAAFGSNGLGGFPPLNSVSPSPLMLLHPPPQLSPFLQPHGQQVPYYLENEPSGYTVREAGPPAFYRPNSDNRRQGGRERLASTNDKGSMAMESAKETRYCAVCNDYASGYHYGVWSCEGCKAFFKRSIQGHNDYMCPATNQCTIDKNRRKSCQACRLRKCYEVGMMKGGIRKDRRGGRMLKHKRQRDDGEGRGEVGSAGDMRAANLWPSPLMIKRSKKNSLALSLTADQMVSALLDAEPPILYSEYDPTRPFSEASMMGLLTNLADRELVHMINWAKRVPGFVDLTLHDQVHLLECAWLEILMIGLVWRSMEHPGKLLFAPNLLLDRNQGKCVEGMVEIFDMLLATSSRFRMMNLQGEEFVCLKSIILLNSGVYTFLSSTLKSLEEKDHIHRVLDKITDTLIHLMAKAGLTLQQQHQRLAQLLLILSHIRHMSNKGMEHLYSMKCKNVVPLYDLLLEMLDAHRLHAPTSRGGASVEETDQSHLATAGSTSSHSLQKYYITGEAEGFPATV

Assay [3] in a line: HPDE-C7 pancreatic duct cell viability loss – fluorescence, HTS (AID 430). The assay is classed as functional, cell-based. The settings on record: Homo sapiens.
Assay [4] is described as follows: viability loss of HPDE-C7K cells – cell-based, fluorescence, HTS, primary screen (AID 431). Format: functional. The settings on record: Homo sapiens.
Assay [5] has as its target T2, Aminopeptidase N (Plasmodium falciparum FcB1/Columbia, UniProt O96935).
T2 sequence (O96935 whole entry): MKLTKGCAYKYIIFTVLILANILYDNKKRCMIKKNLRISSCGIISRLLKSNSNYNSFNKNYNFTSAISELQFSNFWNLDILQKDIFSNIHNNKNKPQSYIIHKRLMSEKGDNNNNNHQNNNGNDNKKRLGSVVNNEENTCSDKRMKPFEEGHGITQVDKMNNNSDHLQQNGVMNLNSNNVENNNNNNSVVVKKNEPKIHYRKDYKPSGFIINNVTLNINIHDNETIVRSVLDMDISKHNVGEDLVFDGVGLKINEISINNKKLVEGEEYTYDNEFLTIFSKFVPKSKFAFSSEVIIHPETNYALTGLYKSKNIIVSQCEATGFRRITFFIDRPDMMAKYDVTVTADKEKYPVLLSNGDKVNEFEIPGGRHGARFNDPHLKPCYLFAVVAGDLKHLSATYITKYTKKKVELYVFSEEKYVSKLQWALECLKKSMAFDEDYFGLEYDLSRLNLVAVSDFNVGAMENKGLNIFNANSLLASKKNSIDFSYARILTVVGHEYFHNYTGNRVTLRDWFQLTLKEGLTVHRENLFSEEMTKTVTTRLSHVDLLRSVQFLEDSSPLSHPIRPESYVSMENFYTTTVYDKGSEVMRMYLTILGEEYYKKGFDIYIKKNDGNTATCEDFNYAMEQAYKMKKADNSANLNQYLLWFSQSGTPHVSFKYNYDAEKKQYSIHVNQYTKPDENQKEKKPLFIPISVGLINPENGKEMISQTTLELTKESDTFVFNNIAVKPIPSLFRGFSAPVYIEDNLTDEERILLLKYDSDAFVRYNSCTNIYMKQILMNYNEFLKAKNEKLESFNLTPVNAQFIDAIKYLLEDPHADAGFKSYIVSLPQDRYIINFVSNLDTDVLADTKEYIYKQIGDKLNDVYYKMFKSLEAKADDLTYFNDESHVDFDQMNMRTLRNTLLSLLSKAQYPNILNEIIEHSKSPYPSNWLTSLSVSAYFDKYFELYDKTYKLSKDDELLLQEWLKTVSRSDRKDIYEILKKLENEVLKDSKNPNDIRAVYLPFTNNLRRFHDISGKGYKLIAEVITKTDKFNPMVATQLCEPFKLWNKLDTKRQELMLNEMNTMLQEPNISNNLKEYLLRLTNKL
The assay can be described thus: malaria alanyl aminopeptidase activity blockers – biochemical, fluorogenic H-Leu-NHMec substrate, 1536-well (AID 1445). More on the design: species or system Plasmodium falciparum 3D7, 3D7.

A short description of assay [6]: NIH-3T3 fibroblast cytotoxicity, dose response, cytotoxicity control, cell-based, fluorescence, Alamar Blue, secondary assay (AID 2327).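 Note: NIH-3T3 mouse fibroblasts cultured with fluconazole at 8 µg/mL.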 The assay is classed as functional. (The colour change of resazurin is a common sign of viable cells or microbes.)
A short description of assay [7]: HEK-293T cell viability reduction – luminescence, B-cell screen hits, cytotoxicity control for BCR NF-kB inhibitor project, dose response (AID 489021).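 Note: HEK-293T cells carrying an NF-kB luciferase reporter; cells exposed to compound for about 14 hours before viability readout.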 Format: functional, cell-based.

The CC50 is the concentration at which the toxic effect on the cells reaches its halfway point. For the compound `CCOc1cccc(CN2CCCC(C(=O)Nc3cccc(-n4cccn4)c3)C2)c1` (centres undefined), in assay [1], the CC50 is > 40 µM (active). What is called IC50 is the concentration that gives 50% inhibition. As to `CCOc1ccc(Nc2oc(-c3ccccc3Cl)nc2C#N)cc1`, the IC50 in assay [2] is 9.54 µM (active). As a reminder, the EC50 is the midpoint of the concentration-response curve. Turning to `COc1ccc(C2NC3=C(CCCC3)C(C#N)(C#N)C2(C#N)C#N)cc1` (centres undefined), the EC50 in assay [3] and in assay [4] was > 20 µM (not active) throughout. For `CCOC(=O)CSc1nn(C)c(=S)s1`, the IC50 in assay [2] is 7.98 µM (active). Consider `CC(C)CC(NC(=O)C(COCc1ccccc1)NC(=O)OC(C)(C)C)C(=O)NN` (centres undefined) (Boc-Ser(Bn)-Leu-NHNH2; configuration not given here), for which, in assay [5], the IC50 is 81.4 µM (active). `CCCSc1nc(C)c(-c2csc(C(C#N)=C3CCCC3)n2)cc1C#N`: the IC50 in assay [2] was 9.34 µM (active). As for `COc1ccc(C(=O)C2CCCN(C(=O)c3cnsn3)C2)c(C)c1` (centres undefined), the CC50 in assay [1] was > 40 µM (active). With `COc1ccc(C(=O)Oc2c(CN3CCOCC3)cc(Cl)c3cccnc23)cc1`, the EC50 is > 160 µM (inactive) in assay [6], 5.17 µM (active) in assay [3] and 13.4 µM (active) in assay [4]. Moreover, in assay [1], the CC50 was 5.39 µM (active). `N#CC1=C2SCC(O)(c3ccccc3)N2C(=O)CC1c1cccs1` (centres undefined): the EC50 in assay [3] is 1.44 µM (active); in assay [4], 1.53 µM (active). In the case of `Cc1ccc2nc(O)c(C3=NN(C(=O)CCC(=O)O)C(c4cccs4)C3)c(-c3ccccc3)c2c1` (centres undefined), in assay [5], the IC50 was 68.9 µM (active). Regarding `COc1ccc(/C=C2/SC(=S)N(CCC(=O)O)C2=O)cc1`, the IC50 in assay [7] was > 80 µM (inactive). For the compound `c1ccc2c(c1)NCC1CCCN21` (centres undefined), in assay [1], the CC50 was > 40 µM (active).

Consider `COc1ccc(/C=C(\CC(=O)O)c2nc3ccccc3o2)cc1`, for which, in assay [5], the IC50 was 81.5 µM (active). `COc1ccc(/C=N/NC(=O)c2cccc(NC(=O)c3ccccc3Cl)c2)cc1OC`: the half-inhibitory concentration (IC50) in assay [5] was 53.9 µM (active).
